Laboratory results published in patent publication US4742049A, “Semisynthetic erythromycin antibiotics” (Abbott Laboratories, priority 1986, dated 1988).
≈ marks a conversion by molar mass, not a printed value. Like-named read-outs stand apart in the source and are kept apart here.

Assays:
Providencia stuartii = test: antimicrobial spectrum, agar dilution MIC; assay type: cell-based; conditions: strain CMX 640, BHI agar, 20-24 hours
Outline: (§1)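 Twelve plates of Brain Heart Infusion agar hold successive aqueous dilutions of compound; each is inoculated by Steers replicator with 1:100 culture dilutions (1:10 for slow-growing streptococci) and incubated at 35°-37° C. for 20-24 hours. MIC is the lowest concentration giving no growth, slight haze or sparse colonies versus growth control.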

Pseudomonas aeruginosa = test: antimicrobial spectrum, agar dilution MIC; assay type: cell-based; conditions: Pseudomonas aeruginosa, BHI agar, 20-24 hours
Outline: as §1

Staph. aureus = test: antimicrobial spectrum, agar dilution MIC; assay type: cell-based; conditions: Staphylococcus aureus, BHI agar, 20-24 hours
Outline: as §1

Staph. epidermidis = test: antimicrobial spectrum, agar dilution MIC; assay type: cell-based; conditions: Staphylococcus epidermidis, BHI agar, 20-24 hours
Outline: as §1

Strep. agalactiae = test: antimicrobial spectrum, agar dilution MIC; assay type: cell-based; conditions: Streptococcus agalactiae, BHI agar, 20-24 hours
Outline: as §1

Strep. bovis = test: antimicrobial spectrum, agar dilution MIC; assay type: cell-based; conditions: Streptococcus equinus, strain A5169; BHI agar, 20-24 hours
Outline: as §1

Strep. faecalis = test: antimicrobial spectrum, agar dilution MIC; assay type: cell-based; conditions: Enterococcus faecalis, BHI agar, 20-24 hours
Outline: as §1

Strep. faecium = test: antimicrobial spectrum, agar dilution MIC; assay type: cell-based; conditions: Enterococcus faecium, ATCC8043, strain ATCC 8043; BHI agar, 20-24 hours
Outline: as §1

Strep. pneumoniae = test: antimicrobial spectrum, agar dilution MIC; assay type: cell-based; conditions: Streptococcus pneumoniae
Outline: as §1

Strep. pyogenes = test: antimicrobial spectrum, agar dilution MIC; assay type: cell-based; conditions: Streptococcus pyogenes, BHI agar, 20-24 hours
Outline: as §1

E. coli = test: antimicrobial spectrum, agar dilution MIC; assay type: cell-based; conditions: Escherichia coli, BHI agar, 20-24 hours
Micrococcus luteus = test: antimicrobial spectrum, agar dilution MIC; assay type: cell-based; conditions: 20-24 hours
Lactobacillus Casei = test: antimicrobial spectrum, agar dilution MIC; assay type: cell-based; conditions: Lacticaseibacillus casei, ATCC7469, strain ATCC 7469; BHI agar, 20-24 hours
Ent. aerogenes = test: antimicrobial spectrum, agar dilution MIC; assay type: cell-based; conditions: Klebsiella aerogenes, ATCC10348, strain ATCC 10348; BHI agar, 20-24 hours
Klebsiella pneumoniae = test: antimicrobial spectrum, agar dilution MIC; assay type: cell-based; conditions: strain 8045, BHI agar, 20-24 hours
Pseudomonas cepacia = test: antimicrobial spectrum, agar dilution MIC; assay type: cell-based; conditions: Burkholderia cepacia, strain 2961; BHI agar, 20-24 hours; read-out: MIC
Method: Erythromycin A was used for this purpose.
After incubation, each disk is read.

Acinetobacter SP = test: antimicrobial spectrum, agar dilution MIC; assay type: cell-based; conditions: strain CMX 669, BHI agar, 20-24 hours
Staph. saprophyticus = test: microbe, parasite or virus in culture; conditions: Staphylococcus saprophyticus, ATCC15305
Method: Twelve petri dishes containing successive aqueous dilutions of the test compound mixed with 10 ml of sterilized Brain Heart Infusion agar (Difco 0418-01-5) are prepared. Each plate is inoculated with 1:100 (or 1:10 for slow-growing strains, primarily Micrococcus and Streptococcus) dilutions of up to 32 different microorganisms, using a Steers replicator block. The inoculated plates are incubated at 35°-37° C. for 20-24 hours. In addition, a control plate, using BHI agar containing no test compound, is prepared and incubated at the beginning and end of each test.
An additional plate containing a compound having known susceptibility patterns for the organisms being tested and belonging to the same antibiotic class as the test compound is also prepared and incubated as a further control, as well as to provide test-to-test comparability.
After incubation, each disk is read. The MIC is defined as the lowest concentration of drug yielding no growth, a slight haze, or sparsely isolated colonies on the inoculum spot as compared to the growth control.

[1] = test system: gut contractions (stomach, duodenum, jejunum); conditions: dog, in vivo, iv, 4 mg/kg
Method: Compounds of this invention have been tested for gastrointestinal stimulating activity in a dog model at 4 mg/kg intravenously. Contractions in the gut were recorded with surgically implanted strain gauges. […] Ratios were calculated for the stomach, duodenum and jejunum, and a final arithmetic mean index was calculated and reported in Table 1.

Staph. aureus NCTC 10649 = test: acute mouse protection test; conditions: for ED50: Staphylococcus aureus, NCTC10649, in Mus musculus, 168 h, dosed 1 and 5 hours post-infection, observed 7 days; for # Died: ten mice
Method: The acute mouse protection test is conducted on ten mice with each of three levels of drug.
The acute mouse protection test is conducted on female, Swiss albino mice, 18-20 grams in weight. The mice are injected intraperitoneally with an 18-hour culture of the indicated test organism diluted sufficiently to provide the desired LD50 value. To check the potency of the inoculum, a titration of the indicated test organism is carried out in control animals. […] The ED50 values are calculated using the mortality data collected.

`CC[C@H]1OC(=O)[C@H](C)[C@@H](O[C@H]2C[C@@](C)(OC)[C@@H](O)[C@H](C)O2)[C@H](C)[C@@H](O[C@@H]2O[C@H](C)C[C@H](N(C)C)[C@H]2O)[C@](C)(OC)C[C@@H](C)C(=O)[C@H](C)[C@H]2NC(=O)O[C@@]21C` [Example 2, 11-deoxy-6-O-methyl erythromycin A 11,12 cyclic carbamate] was tested, and the MIC (Providencia stuartii) was > 100 µg/mL, the MIC (Pseudomonas aeruginosa; strain 5007) was 100 µg/mL (≈ 129 µM) and the MIC (Pseudomonas aeruginosa; strain BMH10) was 50 µg/mL (≈ 64.7 µM). The MIC (Pseudomonas aeruginosa; strain K799/61) was 1.56 µg/mL (≈ 2.02 µM), the MIC (Pseudomonas aeruginosa; strain K799/WT) was 50 µg/mL (≈ 64.7 µM) and the MIC (Staph. aureus; ATCC6538P, strain ATCC 6538P) was 0.1 µg/mL (≈ 0.129 µM). It also gave an MIC (Staph. aureus; ATCC25923, strain ATCC 25923) of 0.015 µg/mL (≈ 0.0194 µM), an MIC (Staph. aureus; NCTC10649, strain NCTC 10649, read-out: MIC) of 0.06 µg/mL (≈ 0.0776 µM) and an MIC (Staph. aureus; strain 45) of 0.1 µg/mL (≈ 0.129 µM). It also gave an MIC (Staph. aureus; strain 45 RAR 2) of 0.2 µg/mL (≈ 0.259 µM), an MIC (Staph. aureus; strain 642A) of 0.03 µg/mL (≈ 0.0388 µM) and an MIC (Staph. aureus; strain A5177) of 0.39 µg/mL (≈ 0.505 µM). For the same compound, the MIC (Staph. aureus; strain A-5278) was > 128 µg/mL, the MIC (Staph. aureus; strain CMX 686B) was 0.1 µg/mL (≈ 0.129 µM) and the MIC (Staph. aureus; strain CMX 705) was 0.015 µg/mL (≈ 0.0194 µM). For the same compound, the MIC (Staph. aureus; strain CMX 730A) was 0.015 µg/mL (≈ 0.0194 µM), the MIC (Staph. aureus; strain CMX 739A) was 0.015 µg/mL (≈ 0.0194 µM) and the MIC (Staph. aureus; strain GYR 1150) was 0.03 µg/mL (≈ 0.0388 µM). For the same compound, the MIC (Staph. aureus; strain GYR 1162) was 0.03 µg/mL (≈ 0.0388 µM), the MIC (Staph. epidermidis; strain 3519) was 0.05 µg/mL (≈ 0.0647 µM) and the MIC (Staph. epidermidis; strain 3519 RARI) was 0.05 µg/mL (≈ 0.0647 µM). For the same compound, the MIC (Staph. epidermidis; strain CMX 724G) was > 128 µg/mL, the MIC (Staph. epidermidis; strain CMX 728) was 0.03 µg/mL (≈ 0.0388 µM) and the MIC (Staph. epidermidis; strain CMX 729h) was > 128 µg/mL. The MIC (Staph. epidermidis; strain GYR 1151) was 0.03 µg/mL (≈ 0.0388 µM), the MIC (Strep. agalactiae; strain CMX 508) was 0.01 µg/mL (≈ 0.0129 µM) and the MIC (Strep. agalactiae; strain CMX 633) was 0.015 µg/mL (≈ 0.0194 µM). For the same compound, the MIC (Strep. bovis) was 0.02 µg/mL (≈ 0.0259 µM), the MIC (Strep. faecalis; strain A-5168) was > 128 µg/mL and the MIC (Strep. faecalis; strain CMX 663F) was 0.5 µg/mL (≈ 0.647 µM). The MIC (Strep. faecalis; strain CMX 729G, read-out: MIC) was 0.12 µg/mL (≈ 0.155 µM), the MIC (Strep. faecalis; strain CMX 736F, read-out: MIC) was 0.06 µg/mL (≈ 0.0776 µM) and the MIC (Strep. faecalis; strain GYR 1164, read-out: MIC) was 0.12 µg/mL (≈ 0.155 µM). It also gave an MIC (Strep. faecalis; strain GYR 1166, read-out: MIC) of 0.06 µg/mL (≈ 0.0776 µM), an MIC (Strep. faecalis; strain GYR 1167, read-out: MIC) of 0.12 µg/mL (≈ 0.155 µM) and an MIC (Strep. faecium) of 0.05 µg/mL (≈ 0.0647 µM). The MIC (Strep. pneumoniae) was 16 µg/mL (≈ 20.7 µM), the MIC (Strep. pneumoniae; strain CMX 635, BHI agar, 20-24 hours) was 0.004 µg/mL (≈ 0.00517 µM) and the MIC (Strep. pneumoniae; strain CMX 698, BHI agar, 20-24 hours) was 0.004 µg/mL (≈ 0.00517 µM). For the same compound, the MIC (Strep. pyogenes; strain 930) was > 100 µg/mL, the MIC (Strep. pyogenes; strain C203) was 0.004 µg/mL (≈ 0.00517 µM) and the MIC (Strep. pyogenes; strain EES61) was 0.05 µg/mL (≈ 0.0647 µM). It also gave an MIC (Strep. pyogenes; strain M79061-98, read-out: MIC) of 0.25 µg/mL (≈ 0.323 µM), an MIC (Strep. pyogenes; strain M79061-139) of 0.004 µg/mL (≈ 0.00517 µM) and an MIC (Strep. pyogenes; strain M79061-140) of 0.004 µg/mL (≈ 0.00517 µM). The MIC (E. coli; strain DC-2) was 50 µg/mL (≈ 64.7 µM), the MIC (E. coli; strain H560) was 3.1 µg/mL (≈ 4.01 µM) and the MIC (E. coli; strain JUHL) was 50 µg/mL (≈ 64.7 µM). The MIC (E. coli; strain KNK 437) was 25 µg/mL (≈ 32.3 µM), the MIC (E. coli; strain SS) was 0.39 µg/mL (≈ 0.505 µM) and the MIC (Micrococcus luteus; strain 4698, BHI agar) was 0.39 µg/mL (≈ 0.505 µM). For the same compound, the MIC (Micrococcus luteus; strain 9341, BHI agar) was 0.05 µg/mL (≈ 0.0647 µM), the MIC (Lactobacillus Casei) was 0.05 µg/mL (≈ 0.0647 µM) and the MIC (Ent. aerogenes) was 100 µg/mL (≈ 129 µM). It also gave an MIC (Klebsiella pneumoniae) of 50 µg/mL (≈ 64.7 µM), an MIC (Pseudomonas cepacia) of 25 µg/mL (≈ 32.3 µM) and an MIC (Acinetobacter SP) of 6.2 µg/mL (≈ 8.02 µM). For the same compound, the MIC (Staph. saprophyticus) was 0.03 µg/mL (≈ 0.0388 µM), the “Gastrointestinal Motility Index” value [1] was 1.18 and the ED50 (Staph. aureus NCTC 10649; po, dosage medium Carboxymethylcellulose) was 45.2 mg/kg. For the same compound, the ED50 (Staph. aureus NCTC 10649; po, dosage medium PBS) was 34.4 mg/kg, the ED50 (Staph. aureus NCTC 10649; sc, subcutaneous, dosage medium Injectable solution) was 5 mg/kg and the “# Died” value (Staph. aureus NCTC 10649; oral, Carboxymethylcellulose, 9.4 mg/kg) was 10. The “# Died” value (Staph. aureus NCTC 10649; oral, Carboxymethylcellulose, 62.5 mg/kg) was 7, the “# Died” value (Staph. aureus NCTC 10649; oral, Carboxymethylcellulose, 150.0 mg/kg) was 0 and the “# Died” value (Staph. aureus NCTC 10649; oral, PBS, 9.4 mg/kg) was 10. For the same compound, the “# Died” value (Staph. aureus NCTC 10649; oral, PBS, 62.5 mg/kg) was 7, the “# Died” value (Staph. aureus NCTC 10649; oral, PBS, 150.0 mg/kg) was 0 and the “# Died” value (Staph. aureus NCTC 10649; subcutaneous, Injectable solution, 2.5 mg/kg) was 9. The “# Died” value (Staph. aureus NCTC 10649; subcutaneous, Injectable solution, 10.0 mg/kg) was 1 and the “# Died” value (Staph. aureus NCTC 10649; subcutaneous, Injectable solution, 40.0 mg/kg) was 0.
